In ChEMBL document CHEMBL2150993, “Substituted thiazoles VII. Synthesis and antitumor activity of certain 2-(substituted amino)-4-phenyl-1,3-thiazole analogs” (2012):
Calls of active or inactive are those of the source. No cut-off for these calls is given here.

How the values were obtained:
Assay type in all cases: functional
[1] = tested on: Malme-3M; assay: Growth inhibition of human MALME-3M cells after 48 hrs by cell counting analysis; details: at 10 µM
[2] = tested on: ACHN; assay: Growth inhibition of human ACHN cells after 48 hrs by cell counting analysis; details: at 10 µM
[3] = tested on: SNB-75; assay: Growth inhibition of human SNB75 cells after 48 hrs by cell counting analysis; details: at 10 µM
[4] = tested on: NCI-H226; assay: Growth inhibition of human NCI-H226 cells after 48 hrs by cell counting analysis; details: at 10 µM
[5] = Antiproliferative activity against human breast cancer cells after 48 hrs by cell counting analysis; details: Cancer cell lines
[6] = tested on: EKVX; assay: Growth inhibition of human EKVX cells after 48 hrs by cell counting analysis; details: at 10 µM
[7] = Antiproliferative activity against human non-small cell lung cancer cells after 48 hrs by cell counting analysis; details: Cancer cell lines
[8] = tested on: OVCAR-4; assay: Growth inhibition of human OVCAR4 cells after 48 hrs by cell counting analysis; details: at 10 µM
[9] = tested on: HCC 2998; assay: Growth inhibition of human HCC2998 cells after 48 hrs by cell counting analysis; details: at 10 µM
[10] = tested on: SF-539; assay: Growth inhibition of human SF539 cells after 48 hrs by cell counting analysis; details: at 10 µM
[11] = Antiproliferative activity against human ovarian cancer cells after 48 hrs by cell counting analysis; details: Cancer cell lines
[12] = Growth inhibition of human NCI-ADR-RES cells after 48 hrs by cell counting analysis; details: at 10 µM
[13] = Antiproliferative activity against human renal cancer cells after 48 hrs by cell counting analysis; details: Cancer cell lines
[14] = tested on: OVCAR-5; assay: Growth inhibition of human OVCAR5 cells after 48 hrs by cell counting analysis; details: at 10 µM
[15] = tested on: SNB-19; assay: Growth inhibition of human SNB19 cells after 48 hrs by cell counting analysis; details: at 10 µM
[16] = tested on: HL-60; assay: Growth inhibition of human HL60 cells after 48 hrs by cell counting analysis; details: at 10 µM
[17] = tested on: CCRF-CEM; assay: Growth inhibition of human CCRF-CEM cells after 48 hrs by cell counting analysis; details: at 10 µM
[18] = tested on: SK-MEL-5; assay: Growth inhibition of human SK-MEL-5 cells after 48 hrs by cell counting analysis; details: at 10 µM
[19] = tested on: BT-549; assay: Growth inhibition of human BT549 cells after 48 hrs by cell counting analysis; details: at 10 µM
[20] = tested on: MDA-MB-468; assay: Growth inhibition of human MDA-MB-468 cells after 48 hrs by cell counting analysis
[21] = tested on: TK-10; assay: Growth inhibition of human TK10 cells after 48 hrs by cell counting analysis; details: at 10 µM
[22] = tested on: HCT-116; assay: Growth inhibition of human HCT116 cells after 48 hrs by cell counting analysis; details: at 10 µM
[23] = tested on: PC-3; assay: Growth inhibition of human PC3 cells after 48 hrs by cell counting analysis; details: at 10 µM
[24] = Antiproliferative activity against human colon cancer cells after 48 hrs by cell counting analysis; details: Cancer cell lines
[25] = Antiproliferative activity against human prostate cancer cells after 48 hrs by cell counting analysis; details: Cancer cell lines
[26] = tested on: MDA-MB-231; assay: Growth inhibition of human MDA-MB-231 cells after 48 hrs by cell counting analysis; details: at 10 µM
[27] = tested on: UO-31; assay: Growth inhibition of human UO31 cells after 48 hrs by cell counting analysis; details: at 10 µM
[28] = Antiproliferative activity against human CNS cancer cells after 48 hrs by cell counting analysis; details: Cancer cell lines
[29] = read-out: LC50 (the source's name)

O=C(CCCl)Nc1nc(-c2ccc(Cl)cc2)cs1
growth inhibition (GI) [1]: 44%
growth inhibition (GI) [2]: 39.2%
growth inhibition (GI) [3]: 58.8%
growth inhibition (GI) [4]: 51%
GI50 [5]: 2.4 µM
TGI [5]: 8.8 µM
CC50 [5, 29]: 55.9 µM
growth inhibition (GI) [6]: 29.6%
GI50 [7]: 6.1 µM
TGI [7]: 19 µM
CC50 [7, 29]: 51.5 µM
growth inhibition (GI) [8]: 16.4%
growth inhibition (GI) [9]: 15.8%
growth inhibition (GI) [10]: 94.6%
GI50 [11]: 4.1 µM
TGI [11]: 21.8 µM
CC50 [11, 29]: 67 µM
growth inhibition (GI) [12]: 51.2%
GI50 [13]: 1.7 µM
TGI [13]: 7.9 µM
CC50 [13, 29]: 32.1 µM
growth inhibition (GI) [14]: 35.7%
growth inhibition (GI) [15]: 26.2%
growth inhibition (GI) [16]: 28.5%
growth inhibition (GI) [17]: 88.3%
growth inhibition (GI) [18]: 46.8%
growth inhibition (GI) [19]: 89.9%
growth inhibition (GI) [20]: Active
growth inhibition (GI) [21]: <10%
growth inhibition (GI) [22]: 79.3%
growth inhibition (GI) [23]: 59.7%
GI50 [24]: 3.9 µM
TGI [24]: 13.5 µM
CC50 [24, 29]: 44 µM
GI50 [25]: 2.8 µM
TGI [25]: 13.8 µM
CC50 [25, 29]: 42.2 µM
growth inhibition (GI) [26]: 44.6%
growth inhibition (GI) [27]: 70.1%
GI50 [28]: 3.1 µM
